Measurements taken from patent publication US5112835A, “6-substituted acyclopyrimidine nucleoside derivatives and antiviral agents containing the same as active ingredient thereof” (Mitsubishi Kasei Corporation, priority 1988, dated 1992).
pIC50: −log10 of the molar value.

Columns and labels:
HIV [1] = assay: Inhibitory activity for HIV infection (preventing the death of 50% of the MT-4 cells); format: cell-based; details: Human immunodeficiency virus 1, MT4, 120 h, 5 days of incubation, 37° C., read-out: 50% inhibitory concentration of HIV infection
Method: (§1) In RPMI 1640 DM culture medium containing 20 mM of Hepes buffer solution, 10% fetal bovine serum and 20 µg/ml of gentamycin, 3×10^4 MT-4 cells (human T cell clone which is destroyed by the infection of HIV) were infected with HIV in an amount of 100 times as large as expected to cause 50% infection of the cells. Immediately thereafter, a predetermined amount of sample was added to the culture medium using 50 mg/ml sample solutions in dimethyl sulfoxide and the cells were cultured at 37° C.
(§2) After 5 days of incubation, the number of existing cells was counted to determine the concentration of the compound for preventing the death of 50% of the MT-4 cells. Separately, MT-4 cells were cultured in the same way as above except that they were not infected with HIV to determine the concentration of the compound at which 50% of the MT-4 cells were destroyed.

[2] = Cytotoxicity to MT-4 cells (not infected with HIV); format: cell-based; details: human, 5 days, 37° C., read-out: 50% cytotoxic concentration to MT-4 cells
Method: as §1, §2

HIV [3] = assay: Inhibitory activity for HIV proliferation (HIV antigen expression in HUT-78 cells, indirect immunofluorescence assay); format: cell-based
Method: In the same culture as that for the MT-4 cells, HUT-78 cells (human T cell clone which is not destroyed by the infection of HIV and releases HIV) were infected with HIV in an amount of 0.4 HIV per HUT-78 cell. Immediately thereafter, a predetermined concentration of 1-[(2-hydroxyethoxy)methyl]-6-phenylthiothymine was added to the culture medium and the cells were cultured at 37° C.
Every four days, 3/4 of the culture solution was exchanged and after 12 days of incubation the number of the cells positive to an HIV antigen was counted by indirect immunofluorescence assay using HIV antiserum (positive to the coating protein and core protein of HIV) which had been obtained from an HIV-infected patient.
For comparison, a similar experiment was carried out by using 2',3'-dideoxyadenosine.

HUT-78 cells = assay: Toxicity to HUT-78 cells; format: cell-based, human; details: 100 μM
host cell = details: background art statement; clinical treatment of HIV-infection; cited from earlier work

SMILES	pIC50 (HIV [1])	CC50 at 120 h [2]	further results
Cc1c(Sc2cccc(Cl)c2)n(COCCO)c(=O)[nH]c1=O [compound 10]	4.89	> 250 µM	–
Cc1c(SC2CCCCC2)n(COCCO)c(=O)[nH]c1=O [compound 25]	4.74	> 250 µM	–
Cc1c(Sc2ccccc2)n(COCCO)c(=S)[nH]c1=O [compound 59, 1-[(2-hydroxyethoxy)methyl]-2-thio-6-phenylthiothymine]	6.01	125 µM	–
COc1ccccc1Sc1c(C)c(=O)[nH]c(=O)n1COCCO [compound 12]	4.72	> 250 µM	–
Cc1c(Sc2cccc([N+](=O)[O-])c2)n(COCCO)c(=O)[nH]c1=O [compound 17]	4.47	> 250 µM	–
Cc1cccc(Sc2c(C)c(=O)[nH]c(=O)n2COCCO)c1 [compound 7]	5.29	> 250 µM	–
Cc1c(Sc2ccccc2)n(COCCO)c(=O)[nH]c1=O [compound 1, 1-[(2-hydroxyethoxy)methyl]-6-phenylthiothymine]	5.15	> 250 µM	prevention of the expression of the HIV antigens (HIV [3]; 20 μM, 12 days of incubation): completely prevented the expression of the antigens; pIC50 (HIV [3]; Human immunodeficiency virus 1, HuT78, 288 h, 12 days of incubation, indirect immunofluorescence, read-out: 50% inhibitory concentration (expression of HIV antigens)): 5.28; toxicity to the HUT-78 cells (HUT-78 cells): no toxicity to the HUT-78 cells was observed
Cc1cn([C@H]2C[C@H](N=[N+]=[N-])[C@@H](CO)O2)c(=O)[nH]c1=O [3'-deoxy-3'-azidothymidine]	–	–	toxicity in the host cell (host cell): considerable toxicity in the host cell
COc1cccc(Sc2c(C)c(=O)[nH]c(=O)n2COCCO)c1 [compound 13]	4.66	> 250 µM	–
Nc1ncnc2c1ncn2[C@H]1CC[C@@H](CO)O1 [2',3'-dideoxyadenosine, reference compound]	–	–	prevention of the expression of the HIV antigen (HIV [3]; at a similar concentration to the present compound (20 μM)): completely prevented the expression of the antigen; toxicity to the HUT-78 cells (HUT-78 cells): significant toxicity to the HUT-78 cells
